# Reference: ChEMBL document CHEMBL5724914, “Linking interpersonal differences in gut microbiota composition and drug biotransformation activity” (2024)
# Test: (§1) The drug is tested on Z-030 corresponding to mouse gut metagenome with ENA study accession number: PRJEB37062 and ENA sample accession number: ERS12561829 for biotransformation under anaerobic condition. The drug concentrations were measured over 9 timepoints collected between 0 and 24 hours of incubation by liquid-chromatography-coupled mass spectrometry (LC–MS)
# Conditions: 2 µM
# Note: call rule not given here.
row,SMILES,Bacterial Biotransformation
1,C[C@@H]1CC[C@H]2[C@@H](C)C(=O)O[C@@H]3O[C@@]4(C)CC[C@@H]1[C@]32OO4 [ARTEMISININ],Compound metabolized

# Test: as §1, with “Z-025” for “Z-030”, “rabbit” for “mouse”, “ERS12561824” for “ERS12561829”
# Conditions: 2 µM
row,SMILES,Bacterial Biotransformation
1,CN1C(=O)CC(C)(c2ccccc2)C1=O (stereo not drawn) [METHSUXIMIDE],Compound NOT metabolized
2,CN1C(=O)CCS(=O)(=O)C1c1ccc(Cl)cc1 (stereo not drawn) [CHLORMEZANONE],Compound NOT metabolized

# Test: as §1, with “Z-023” for “Z-030”, “to” for “to mouse gut”, “ERS12561822” for “ERS12561829”
# Conditions: 2 µM
row,SMILES,Bacterial Biotransformation
1,CN1C(=O)CC(C)(c2ccccc2)C1=O (stereo not drawn) [METHSUXIMIDE],Compound NOT metabolized
2,CN1C(=O)CCS(=O)(=O)C1c1ccc(Cl)cc1 (stereo not drawn) [CHLORMEZANONE],Compound NOT metabolized
3,C[C@@H]1CC[C@H]2[C@@H](C)C(=O)O[C@@H]3O[C@@]4(C)CC[C@@H]1[C@]32OO4 [ARTEMISININ],Compound metabolized
4,COc1ccccc1N1CCN(CC(O)COc2cccc3ccccc23)CC1 (stereo not drawn) [NAFTOPIDIL],Compound metabolized

# Test: as §1, with “Z-019” for “Z-030”, “rat” for “mouse”, “ERS12561818” for “ERS12561829”
# Conditions: 2 µM
row,SMILES,Bacterial Biotransformation
1,CN1C(=O)CC(C)(c2ccccc2)C1=O (stereo not drawn) [METHSUXIMIDE],Compound NOT metabolized
2,CN1C(=O)CCS(=O)(=O)C1c1ccc(Cl)cc1 (stereo not drawn) [CHLORMEZANONE],Compound NOT metabolized
3,C[C@@H]1CC[C@H]2[C@@H](C)C(=O)O[C@@H]3O[C@@]4(C)CC[C@@H]1[C@]32OO4 [ARTEMISININ],Compound metabolized
4,COc1ccccc1N1CCN(CC(O)COc2cccc3ccccc23)CC1 (stereo not drawn) [NAFTOPIDIL],Compound NOT metabolized

# Test: as §1, with “Z-018” for “Z-030”, “pig” for “mouse”, “ERS12561817” for “ERS12561829”
# Conditions: 2 µM
row,SMILES,Bacterial Biotransformation
1,CN1C(=O)CC(C)(c2ccccc2)C1=O (stereo not drawn) [METHSUXIMIDE],Compound NOT metabolized
2,CN1C(=O)CCS(=O)(=O)C1c1ccc(Cl)cc1 (stereo not drawn) [CHLORMEZANONE],Compound NOT metabolized
3,C[C@@H]1CC[C@H]2[C@@H](C)C(=O)O[C@@H]3O[C@@]4(C)CC[C@@H]1[C@]32OO4 [ARTEMISININ],Compound metabolized
4,COc1ccccc1N1CCN(CC(O)COc2cccc3ccccc23)CC1 (stereo not drawn) [NAFTOPIDIL],Compound NOT metabolized

# Test: as §1, with “Z-016” for “Z-030”, “ERS12561815” for “ERS12561829”
# Conditions: 2 µM
row,SMILES,Bacterial Biotransformation
1,CN1C(=O)CC(C)(c2ccccc2)C1=O (stereo not drawn) [METHSUXIMIDE],Compound NOT metabolized
2,CN1C(=O)CCS(=O)(=O)C1c1ccc(Cl)cc1 (stereo not drawn) [CHLORMEZANONE],Compound NOT metabolized
3,C[C@@H]1CC[C@H]2[C@@H](C)C(=O)O[C@@H]3O[C@@]4(C)CC[C@@H]1[C@]32OO4 [ARTEMISININ],Compound metabolized
4,COc1ccccc1N1CCN(CC(O)COc2cccc3ccccc23)CC1 (stereo not drawn) [NAFTOPIDIL],Compound NOT metabolized

# Test: as §1, with “Z-014” for “Z-030”, “rat” for “mouse”, “ERS12561814” for “ERS12561829”
# Conditions: 2 µM
row,SMILES,Bacterial Biotransformation
1,CN1C(=O)CC(C)(c2ccccc2)C1=O (stereo not drawn) [METHSUXIMIDE],Compound NOT metabolized
2,CN1C(=O)CCS(=O)(=O)C1c1ccc(Cl)cc1 (stereo not drawn) [CHLORMEZANONE],Compound NOT metabolized
3,C[C@@H]1CC[C@H]2[C@@H](C)C(=O)O[C@@H]3O[C@@]4(C)CC[C@@H]1[C@]32OO4 [ARTEMISININ],Compound metabolized
4,COc1ccccc1N1CCN(CC(O)COc2cccc3ccccc23)CC1 (stereo not drawn) [NAFTOPIDIL],Compound NOT metabolized

# Test: as §1, with “WLS-310” for “Z-030”, “human” for “mouse”, “ERS12561785” for “ERS12561829”
# Conditions: 2 µM
row,SMILES,Bacterial Biotransformation
1,CN1C(=O)CC(C)(c2ccccc2)C1=O (stereo not drawn) [METHSUXIMIDE],Compound NOT metabolized
2,CN1C(=O)CCS(=O)(=O)C1c1ccc(Cl)cc1 (stereo not drawn) [CHLORMEZANONE],Compound NOT metabolized
3,C[C@@H]1CC[C@H]2[C@@H](C)C(=O)O[C@@H]3O[C@@]4(C)CC[C@@H]1[C@]32OO4 [ARTEMISININ],Compound metabolized
4,COc1ccccc1N1CCN(CC(O)COc2cccc3ccccc23)CC1 (stereo not drawn) [NAFTOPIDIL],Compound NOT metabolized

# Test: as §1, with “WLS-086” for “Z-030”, “human” for “mouse”, “ERS12561752” for “ERS12561829”
# Conditions: 2 µM
row,SMILES,Bacterial Biotransformation
1,CN1C(=O)CC(C)(c2ccccc2)C1=O (stereo not drawn) [METHSUXIMIDE],Compound metabolized
2,CN1C(=O)CCS(=O)(=O)C1c1ccc(Cl)cc1 (stereo not drawn) [CHLORMEZANONE],Compound metabolized
3,C[C@@H]1CC[C@H]2[C@@H](C)C(=O)O[C@@H]3O[C@@]4(C)CC[C@@H]1[C@]32OO4 [ARTEMISININ],Compound metabolized
4,COc1ccccc1N1CCN(CC(O)COc2cccc3ccccc23)CC1 (stereo not drawn) [NAFTOPIDIL],Compound NOT metabolized

# Conditions: human gut metagenome, 24 h, 2 µM
row,SMILES,Bacterial Biotransformation
1,CN1C(=O)CC(C)(c2ccccc2)C1=O (stereo not drawn) [METHSUXIMIDE],Compound NOT metabolized
2,CN1C(=O)CCS(=O)(=O)C1c1ccc(Cl)cc1 (stereo not drawn) [CHLORMEZANONE],Compound NOT metabolized
3,C[C@@H]1CC[C@H]2[C@@H](C)C(=O)O[C@@H]3O[C@@]4(C)CC[C@@H]1[C@]32OO4 [ARTEMISININ],Compound metabolized
4,COc1ccccc1N1CCN(CC(O)COc2cccc3ccccc23)CC1 (stereo not drawn) [NAFTOPIDIL],Compound NOT metabolized

# Conditions: human gut metagenome, 24 h, 2 µM
# Remark: another data set of the same source
row,SMILES,Bacterial Biotransformation
1,CN1C(=O)CC(C)(c2ccccc2)C1=O (stereo not drawn) [METHSUXIMIDE],Compound NOT metabolized
2,CN1C(=O)CCS(=O)(=O)C1c1ccc(Cl)cc1 (stereo not drawn) [CHLORMEZANONE],Compound NOT metabolized
3,C[C@@H]1CC[C@H]2[C@@H](C)C(=O)O[C@@H]3O[C@@]4(C)CC[C@@H]1[C@]32OO4 [ARTEMISININ],Compound metabolized
4,COc1ccccc1N1CCN(CC(O)COc2cccc3ccccc23)CC1 (stereo not drawn) [NAFTOPIDIL],Compound NOT metabolized

# Conditions: human gut metagenome, 24 h, 2 µM
# Remark: another data set of the same source
row,SMILES,Bacterial Biotransformation
1,CN1C(=O)CC(C)(c2ccccc2)C1=O (stereo not drawn) [METHSUXIMIDE],Compound NOT metabolized
2,CN1C(=O)CCS(=O)(=O)C1c1ccc(Cl)cc1 (stereo not drawn) [CHLORMEZANONE],Compound NOT metabolized
3,C[C@@H]1CC[C@H]2[C@@H](C)C(=O)O[C@@H]3O[C@@]4(C)CC[C@@H]1[C@]32OO4 [ARTEMISININ],Compound metabolized
4,COc1ccccc1N1CCN(CC(O)COc2cccc3ccccc23)CC1 (stereo not drawn) [NAFTOPIDIL],Compound NOT metabolized

# Conditions: human gut metagenome, 24 h, 2 µM
# Remark: another data set of the same source
row,SMILES,Bacterial Biotransformation
1,CN1C(=O)CC(C)(c2ccccc2)C1=O (stereo not drawn) [METHSUXIMIDE],Compound NOT metabolized
2,CN1C(=O)CCS(=O)(=O)C1c1ccc(Cl)cc1 (stereo not drawn) [CHLORMEZANONE],Compound NOT metabolized
3,C[C@@H]1CC[C@H]2[C@@H](C)C(=O)O[C@@H]3O[C@@]4(C)CC[C@@H]1[C@]32OO4 [ARTEMISININ],Compound metabolized
4,COc1ccccc1N1CCN(CC(O)COc2cccc3ccccc23)CC1 (stereo not drawn) [NAFTOPIDIL],Compound NOT metabolized

# Conditions: human gut metagenome, 24 h, 2 µM
# Remark: another data set of the same source
row,SMILES,Bacterial Biotransformation
1,CN1C(=O)CC(C)(c2ccccc2)C1=O (stereo not drawn) [METHSUXIMIDE],Compound NOT metabolized
2,CN1C(=O)CCS(=O)(=O)C1c1ccc(Cl)cc1 (stereo not drawn) [CHLORMEZANONE],Compound NOT metabolized
3,C[C@@H]1CC[C@H]2[C@@H](C)C(=O)O[C@@H]3O[C@@]4(C)CC[C@@H]1[C@]32OO4 [ARTEMISININ],Compound metabolized
4,COc1ccccc1N1CCN(CC(O)COc2cccc3ccccc23)CC1 (stereo not drawn) [NAFTOPIDIL],Compound NOT metabolized

# Conditions: human gut metagenome, 24 h, 2 µM
# Remark: another data set of the same source
row,SMILES,Bacterial Biotransformation
1,CN1C(=O)CC(C)(c2ccccc2)C1=O (stereo not drawn) [METHSUXIMIDE],Compound NOT metabolized
2,CN1C(=O)CCS(=O)(=O)C1c1ccc(Cl)cc1 (stereo not drawn) [CHLORMEZANONE],Compound NOT metabolized
3,C[C@@H]1CC[C@H]2[C@@H](C)C(=O)O[C@@H]3O[C@@]4(C)CC[C@@H]1[C@]32OO4 [ARTEMISININ],Compound metabolized
4,COc1ccccc1N1CCN(CC(O)COc2cccc3ccccc23)CC1 (stereo not drawn) [NAFTOPIDIL],Compound NOT metabolized

# Conditions: human gut metagenome, 24 h, 2 µM
# Remark: another data set of the same source
row,SMILES,Bacterial Biotransformation
1,CN1C(=O)CC(C)(c2ccccc2)C1=O (stereo not drawn) [METHSUXIMIDE],Compound NOT metabolized
2,CN1C(=O)CCS(=O)(=O)C1c1ccc(Cl)cc1 (stereo not drawn) [CHLORMEZANONE],Compound NOT metabolized
3,C[C@@H]1CC[C@H]2[C@@H](C)C(=O)O[C@@H]3O[C@@]4(C)CC[C@@H]1[C@]32OO4 [ARTEMISININ],Compound metabolized
4,COc1ccccc1N1CCN(CC(O)COc2cccc3ccccc23)CC1 (stereo not drawn) [NAFTOPIDIL],Compound NOT metabolized

# Conditions: human gut metagenome, 24 h, 2 µM
# Remark: another data set of the same source
row,SMILES,Bacterial Biotransformation
1,CN1C(=O)CC(C)(c2ccccc2)C1=O (stereo not drawn) [METHSUXIMIDE],Compound metabolized
2,CN1C(=O)CCS(=O)(=O)C1c1ccc(Cl)cc1 (stereo not drawn) [CHLORMEZANONE],Compound NOT metabolized
3,C[C@@H]1CC[C@H]2[C@@H](C)C(=O)O[C@@H]3O[C@@]4(C)CC[C@@H]1[C@]32OO4 [ARTEMISININ],Compound metabolized
4,COc1ccccc1N1CCN(CC(O)COc2cccc3ccccc23)CC1 (stereo not drawn) [NAFTOPIDIL],Compound NOT metabolized

# Conditions: human gut metagenome, 24 h, 2 µM
# Remark: another data set of the same source
row,SMILES,Bacterial Biotransformation
1,CN1C(=O)CC(C)(c2ccccc2)C1=O (stereo not drawn) [METHSUXIMIDE],Compound NOT metabolized
2,CN1C(=O)CCS(=O)(=O)C1c1ccc(Cl)cc1 (stereo not drawn) [CHLORMEZANONE],Compound NOT metabolized
3,C[C@@H]1CC[C@H]2[C@@H](C)C(=O)O[C@@H]3O[C@@]4(C)CC[C@@H]1[C@]32OO4 [ARTEMISININ],Compound metabolized
4,COc1ccccc1N1CCN(CC(O)COc2cccc3ccccc23)CC1 (stereo not drawn) [NAFTOPIDIL],Compound NOT metabolized

# Conditions: human gut metagenome, 24 h, 2 µM
# Remark: another data set of the same source
row,Bacterial Biotransformation,SMILES
1,Compound NOT metabolized,CN1C(=O)CC(C)(c2ccccc2)C1=O (stereo not drawn) [METHSUXIMIDE]
2,Compound NOT metabolized,COc1ccccc1N1CCN(CC(O)COc2cccc3ccccc23)CC1 (stereo not drawn) [NAFTOPIDIL]

row,SMILES,Bacterial Biotransformation
1,CN1C(=O)CCS(=O)(=O)C1c1ccc(Cl)cc1 (stereo not drawn) [CHLORMEZANONE],Compound NOT metabolized

# Conditions: human gut metagenome, 24 h, 2 µM
# Remark: another data set of the same source
row,Bacterial Biotransformation,SMILES
1,Compound NOT metabolized,CN1C(=O)CC(C)(c2ccccc2)C1=O (stereo not drawn) [METHSUXIMIDE]
2,Compound NOT metabolized,COc1ccccc1N1CCN(CC(O)COc2cccc3ccccc23)CC1 (stereo not drawn) [NAFTOPIDIL]

row,SMILES,Bacterial Biotransformation
1,CN1C(=O)CCS(=O)(=O)C1c1ccc(Cl)cc1 (stereo not drawn) [CHLORMEZANONE],Compound NOT metabolized
